In data set [1] the target is T1, Amine oxidase [flavin-containing] A (Bos taurus, UniProt P21398).
T1 sequence (P21398 whole entry): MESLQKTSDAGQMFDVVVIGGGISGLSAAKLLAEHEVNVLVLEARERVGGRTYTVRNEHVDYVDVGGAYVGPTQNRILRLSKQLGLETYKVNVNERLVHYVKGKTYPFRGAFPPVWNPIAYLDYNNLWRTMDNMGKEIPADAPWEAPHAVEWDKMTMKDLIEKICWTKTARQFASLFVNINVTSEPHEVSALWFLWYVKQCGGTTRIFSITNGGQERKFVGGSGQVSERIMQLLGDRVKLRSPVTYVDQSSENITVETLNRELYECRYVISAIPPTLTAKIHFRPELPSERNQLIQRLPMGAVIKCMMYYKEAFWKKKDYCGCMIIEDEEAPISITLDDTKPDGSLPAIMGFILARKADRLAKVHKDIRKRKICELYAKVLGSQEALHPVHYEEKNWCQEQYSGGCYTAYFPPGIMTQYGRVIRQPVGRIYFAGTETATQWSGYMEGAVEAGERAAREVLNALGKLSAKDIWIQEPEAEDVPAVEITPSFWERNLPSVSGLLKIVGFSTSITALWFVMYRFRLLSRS
As to the kind of experiment: Inhibition of bovine brain mitochondria MAO-A using serotonin substrate after 60 mins by fluorimetric method.

Data set [2] concerns the target T2, Amine oxidase [flavin-containing] B (Bos taurus, UniProt P56560).
T2 sequence (P56560 whole entry): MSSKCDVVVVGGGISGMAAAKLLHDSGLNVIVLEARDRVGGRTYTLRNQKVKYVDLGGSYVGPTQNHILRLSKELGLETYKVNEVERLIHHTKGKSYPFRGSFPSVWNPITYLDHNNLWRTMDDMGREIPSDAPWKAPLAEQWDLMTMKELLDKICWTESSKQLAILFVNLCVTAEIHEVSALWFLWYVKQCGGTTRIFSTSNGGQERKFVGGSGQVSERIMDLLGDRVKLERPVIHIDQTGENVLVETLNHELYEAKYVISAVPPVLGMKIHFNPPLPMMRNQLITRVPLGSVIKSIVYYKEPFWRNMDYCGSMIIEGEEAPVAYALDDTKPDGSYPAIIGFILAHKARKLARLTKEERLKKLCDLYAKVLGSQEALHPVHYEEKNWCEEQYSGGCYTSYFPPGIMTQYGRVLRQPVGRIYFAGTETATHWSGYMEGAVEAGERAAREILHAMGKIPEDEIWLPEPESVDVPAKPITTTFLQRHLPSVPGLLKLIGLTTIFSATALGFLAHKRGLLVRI
The experiment in a line: Inhibition of bovine brain mitochondria MAO-B using benzylamine substrate after 60 mins by fluorimetric method.

In data set [3] the test system is Mus musculus. The experiment in a line: Acute toxicity in mouse at 300 mg/kg, po after 24 hrs. The class given is organism-based. The following applies: in vivo.
Data set [4] deals with Mus musculus. The experiment in a line: Acute toxicity in mouse at 125 mg/kg, ip after 24 hrs. It is filed as organism-based. The following applies: in vivo.

The structures appear in SMILES notation.

Regarding `COC(=O)[C@H](C)NC(=O)c1ccccc1N`, the IC50 in data set [1] came out at 0.063 µM; in data set [2] it was 410 µM. The Activity entry in the data set on Mus musculus [3] and with Mus musculus [4] was “Non-toxic” in each case.
Take `COC(=O)CNC(=O)c1ccccc1N`: the results for the concentration for half-maximal inhibition (IC50) in data set [1] and in data set [2] were 0.052 µM and 850 µM, respectively. Moreover, the Activity result in the data set on Mus musculus [3] and with Mus musculus [4] was “Non-toxic” each time.

One may read the IC50 as the concentration at which inhibition is half-maximal.

(Values after ChEMBL document CHEMBL3585336, “Synthesis and evaluation of quinazoline amino acid derivatives as mono amine oxidase (MAO) inhibitors” (Bioorg Med Chem, 2015).)
